Results published in ChEMBL document CHEMBL4414605 (J Med Chem, 2019).

Tests used:
D(2) dopamine receptor [1] = target: T1, D(2) dopamine receptor (Homo sapiens, UniProt P14416)
Description: Displacement of PPHT-red from SNAP-tagged human D2LR expressed in CHOK1 cell membranes assessed as dissociation rate constant by TR-FRET assay

D(2) dopamine receptor [2] = target: T1, D(2) dopamine receptor; remark: listed apart in the source
Description: Displacement of PPHT-red from SNAP-tagged human D2LR expressed in CHOK1 cell membranes assessed as dissociation half-life by TR-FRET assay

D(2) dopamine receptor [3] = target: T1, D(2) dopamine receptor; remark: listed apart in the source
Description: Displacement of PPHT-red from SNAP-tagged human D2LR expressed in CHOK1 cell membranes assessed as association rate constant by TR-FRET assay

D(2) dopamine receptor [4] = target: T1, D(2) dopamine receptor; conditions: 10 min, read-out: INH
D(2) dopamine receptor [5] = target: T1, D(2) dopamine receptor; remark: listed apart in the source
Description: Binding affinity to SNAP-tagged human D2LR expressed in CHOK1 cell membranes assessed as association rate constant by TR-FRET assay

D(2) dopamine receptor [6] = target: T1, D(2) dopamine receptor; remark: listed apart in the source
Description: Binding affinity to SNAP-tagged human D2LR expressed in CHOK1 cell membranes assessed as dissociation rate constant by TR-FRET assay

T1 sequence (P14416 whole entry): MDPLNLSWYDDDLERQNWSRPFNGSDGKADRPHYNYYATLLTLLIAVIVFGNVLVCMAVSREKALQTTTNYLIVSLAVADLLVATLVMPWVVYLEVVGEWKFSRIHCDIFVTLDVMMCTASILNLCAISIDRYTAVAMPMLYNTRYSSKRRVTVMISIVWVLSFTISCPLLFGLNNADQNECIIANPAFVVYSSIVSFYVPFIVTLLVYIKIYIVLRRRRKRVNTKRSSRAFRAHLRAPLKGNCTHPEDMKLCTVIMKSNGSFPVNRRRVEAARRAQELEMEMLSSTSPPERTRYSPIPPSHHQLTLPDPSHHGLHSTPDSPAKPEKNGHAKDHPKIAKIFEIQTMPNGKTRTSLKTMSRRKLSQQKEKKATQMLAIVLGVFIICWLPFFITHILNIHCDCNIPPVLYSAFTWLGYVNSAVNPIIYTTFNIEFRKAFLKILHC

CN(C)c1ccc(C2(O)CCN(CCCC(=O)c3ccc(F)cc3)CC2)cc1
Kdiss (D(2) dopamine receptor [1]): 0.0208 s⁻¹
T1/2 (D(2) dopamine receptor [2]): 33.6 s
Ka (D(2) dopamine receptor [3]): 1.64 ×10⁸ /M/min

O=C(CCCN1CCC(O)(c2ccccc2Cl)CC1)c1ccc(F)cc1
Kdiss (D(2) dopamine receptor [1]): 0.0193 s⁻¹
T1/2 (D(2) dopamine receptor [2]): 36.6 s
Ka (D(2) dopamine receptor [3]): 3.54 ×10⁸ /M/min

OC1(c2ccc(Cl)cc2)CCN(CCCOc2ccc(F)cc2)CC1
Kdiss (D(2) dopamine receptor [1]): 0.0152 s⁻¹
T1/2 (D(2) dopamine receptor [2]): 48.6 s
Ka (D(2) dopamine receptor [3]): 1.22 ×10⁹ /M/min

OC1(c2ccc(Cl)cc2)CCN(CCCCCc2ccc(F)cc2)CC1
Kdiss (D(2) dopamine receptor [1]): 0.0203 s⁻¹
T1/2 (D(2) dopamine receptor [2]): 36 s
Ka (D(2) dopamine receptor [3]): 5.51 ×10⁷ /M/min

O=C(CCCN1CCC(O)(c2ccccc2)CC1)c1ccccc1
Kdiss (D(2) dopamine receptor [1]): 0.0118 s⁻¹
T1/2 (D(2) dopamine receptor [2]): 58.8 s
Ka (D(2) dopamine receptor [3]): 2.28 ×10⁷ /M/min

O=C(CCCN1CCC(O)(c2ccc(Cl)cc2)CC1)c1ccc(F)cc1F
Kdiss (D(2) dopamine receptor [1]): 0.0227 s⁻¹
T1/2 (D(2) dopamine receptor [2]): 30.6 s
Ka (D(2) dopamine receptor [3]): 1.07 ×10⁷ /M/min

OC1(c2ccc(Cl)cc2)CCN(CCCC#Cc2ccc(F)cc2)CC1
Kdiss (D(2) dopamine receptor [1]): 0.0192 s⁻¹
T1/2 (D(2) dopamine receptor [2]): 39 s
Ka (D(2) dopamine receptor [3]): 6.41 ×10⁷ /M/min

O=C(CCCN1CCN(c2ccc(Cl)cc2)CC1)c1ccc(F)cc1
Kdiss (D(2) dopamine receptor [1]): 0.0133 s⁻¹
T1/2 (D(2) dopamine receptor [2]): 53.4 s
Ka (D(2) dopamine receptor [3]): 2.86 ×10⁷ /M/min

COC1(c2ccc(Cl)cc2)CCN(CCCC(=O)c2ccc(F)cc2)CC1
Kdiss (D(2) dopamine receptor [1]): 0.0113 s⁻¹
T1/2 (D(2) dopamine receptor [2]): 61.8 s
Ka (D(2) dopamine receptor [3]): 3.6 ×10⁸ /M/min

O=C(CCCN1CCC(O)(c2c(Cl)cccc2Cl)CC1)c1ccc(F)cc1
Kdiss (D(2) dopamine receptor [1]): 0.0175 s⁻¹
T1/2 (D(2) dopamine receptor [2]): 40.2 s
Ka (D(2) dopamine receptor [3]): 5.07 ×10⁸ /M/min

OC1(c2ccc(Cl)cc2)CCN(CC/C=C/c2ccc(F)cc2)CC1
Kdiss (D(2) dopamine receptor [1]): 0.0127 s⁻¹
T1/2 (D(2) dopamine receptor [2]): 44.4 s
Ka (D(2) dopamine receptor [3]): 6.39 ×10⁷ /M/min

O=C(CCCN1CCC(O)(c2ccc(Cl)cc2)CC1)c1cccc(F)c1
Kdiss (D(2) dopamine receptor [1]): 0.016 to 0.018 s⁻¹
T1/2 (D(2) dopamine receptor [2]): 42 to 45.6 s
Ka (D(2) dopamine receptor [3]): 2.55 to 2.64 ×10⁷ /M/min

O=C(CCCN1CCC(O)(c2ccc(Cl)cc2)CC1)c1ccc(F)c(F)c1
Kdiss (D(2) dopamine receptor [1]): 0.0172 s⁻¹
T1/2 (D(2) dopamine receptor [2]): 45 s

O=C(CCCN1CCC(O)(c2ccccc2-c2ccccc2Cl)CC1)c1ccc(F)cc1
Kdiss (D(2) dopamine receptor [1]): 0.0137 s⁻¹
T1/2 (D(2) dopamine receptor [2]): 53.4 s
Ka (D(2) dopamine receptor [3]): 3.25 ×10⁸ /M/min

Cc1ccc(C2(O)CCN(CCCC(=O)c3ccc(F)cc3)CC2)cc1
Kdiss (D(2) dopamine receptor [1]): 0.0163 s⁻¹
T1/2 (D(2) dopamine receptor [2]): 43.8 s
Ka (D(2) dopamine receptor [3]): 1 ×10⁹ /M/min

O=C(CCCN1CCC(O)(c2ccc(F)cc2)CC1)c1ccc(Cl)cc1
Kdiss (D(2) dopamine receptor [1]): 0.0128 s⁻¹
T1/2 (D(2) dopamine receptor [2]): 54.6 s
Ka (D(2) dopamine receptor [3]): 4.17 ×10⁷ /M/min

O=C(CCCN1CC=C(c2ccc(Cl)cc2)CC1)c1ccc(F)cc1
Kdiss (D(2) dopamine receptor [1]): 0.0108 s⁻¹
T1/2 (D(2) dopamine receptor [2]): 65.4 s
Ka (D(2) dopamine receptor [3]): 6.52 ×10⁷ /M/min

O=C(CCCN1CCC(c2ccccc2)CC1)c1ccc(F)cc1
inhibition at 10 µM (D(2) dopamine receptor [4]): 20%
Kdiss (D(2) dopamine receptor [1]): 0.0118 s⁻¹
T1/2 (D(2) dopamine receptor [2]): 59.4 s
Ka (D(2) dopamine receptor [3]): 8.99 ×10⁷ /M/min

CCCN(CCc1ccccc1)C1CCc2c(O)cccc2C1 (racemic)
Ka (D(2) dopamine receptor [5]): 9.21 ×10⁶ /M/min
Kdiss (D(2) dopamine receptor [6]): 0.00583 s⁻¹

O=C(CCCN1CCC(O)(c2ccc(Cl)cc2)CC1)c1c(F)cccc1F
Kdiss (D(2) dopamine receptor [1]): 0.0182 s⁻¹
T1/2 (D(2) dopamine receptor [2]): 39.6 s
Ka (D(2) dopamine receptor [3]): 1.84 ×10⁷ /M/min

O=C(CCCCN1CCC(O)(c2ccc(Cl)cc2)CC1)c1ccc(F)cc1
Kdiss (D(2) dopamine receptor [1]): 0.0275 to 0.0392 s⁻¹
T1/2 (D(2) dopamine receptor [2]): 18 to 28.8 s
Ka (D(2) dopamine receptor [3]): 1.42 to 1.8 ×10⁸ /M/min

O=C(CCCN1CCC(O)(c2ccc(Cl)cc2)CC1)c1ccccc1F
Kdiss (D(2) dopamine receptor [1]): 0.0173 s⁻¹
T1/2 (D(2) dopamine receptor [2]): 41.4 s

O=C(CCCN1CCC(O)(c2ccc(Cl)cc2)CC1)c1cccc(F)c1F
Kdiss (D(2) dopamine receptor [1]): 0.0215 to 0.0283 s⁻¹
T1/2 (D(2) dopamine receptor [2]): 24.6 to 36 s
Ka (D(2) dopamine receptor [3]): 3.01 to 3.24 ×10⁷ /M/min

OC1(c2ccc(Cl)cc2)CCN(CCCCc2ccc(F)cc2)CC1
Kdiss (D(2) dopamine receptor [1]): 0.0185 s⁻¹
T1/2 (D(2) dopamine receptor [2]): 37.8 s
Ka (D(2) dopamine receptor [3]): 1.57 ×10⁸ /M/min

O=C(CCCN1CCC(O)(c2ccc(Cl)cc2)CC1)c1cc(F)ccc1F
Kdiss (D(2) dopamine receptor [1]): 0.019 to 0.0248 s⁻¹
T1/2 (D(2) dopamine receptor [2]): 34.8 to 37.8 s
Ka (D(2) dopamine receptor [3]): 1.13 to 1.15 ×10⁷ /M/min

O=C(CCCN1CCC(O)(c2ccc(Cl)cc2)CC1)c1ccc(Cl)cc1
Kdiss (D(2) dopamine receptor [1]): 0.0117 s⁻¹
T1/2 (D(2) dopamine receptor [2]): 60 s
Ka (D(2) dopamine receptor [3]): 1.38 ×10⁸ /M/min

O=C(CCCN1CCC(O)(c2cc(Cl)ccc2Cl)CC1)c1ccc(F)cc1
Kdiss (D(2) dopamine receptor [1]): 0.00933 s⁻¹
T1/2 (D(2) dopamine receptor [2]): 76.2 s
Ka (D(2) dopamine receptor [3]): 5.29 ×10⁸ /M/min

O=C(CCCN1CCC(O)(c2ccc(F)cc2)CC1)c1ccc(F)cc1
Kdiss (D(2) dopamine receptor [1]): 0.013 s⁻¹
T1/2 (D(2) dopamine receptor [2]): 55.2 s
Ka (D(2) dopamine receptor [3]): 2.61 ×10⁸ /M/min

O=C(CCCN1CCC(O)(c2ccccc2)CC1)c1ccc(F)cc1
Kdiss (D(2) dopamine receptor [1]): 0.017 s⁻¹
T1/2 (D(2) dopamine receptor [2]): 42.6 s
Ka (D(2) dopamine receptor [3]): 1.22 ×10⁸ /M/min

O=C(CCCN1CCC(O)(c2ccc(Cl)cc2)CC1)c1ccccc1Cl
Kdiss (D(2) dopamine receptor [1]): 0.0185 s⁻¹
T1/2 (D(2) dopamine receptor [2]): 45.6 s
Ka (D(2) dopamine receptor [3]): 3.16 ×10⁸ /M/min

OC1(c2ccc(Cl)cc2)CCN(CC[C@H]2C[C@@H]2c2ccc(F)cc2)CC1 (racemic)
Kdiss (D(2) dopamine receptor [1]): 0.0153 s⁻¹
T1/2 (D(2) dopamine receptor [2]): 49.2 s
Ka (D(2) dopamine receptor [3]): 6.07 ×10⁸ /M/min

O=C(CCCN1CCC(c2ccc(Cl)cc2)CC1)c1ccc(F)cc1
Kdiss (D(2) dopamine receptor [1]): 0.014 s⁻¹
T1/2 (D(2) dopamine receptor [2]): 51.6 s
Ka (D(2) dopamine receptor [3]): 4.31 ×10⁸ /M/min

OC1(c2ccc(Cl)cc2)CCN(CC[C@H]2C[C@H]2c2ccc(F)cc2)CC1 (racemic)
Kdiss (D(2) dopamine receptor [1]): 0.0228 s⁻¹
T1/2 (D(2) dopamine receptor [2]): 30.6 s
Ka (D(2) dopamine receptor [3]): 4.47 ×10⁷ /M/min

O=C(CCCN1CCC(O)(c2ccc(Cl)cc2Cl)CC1)c1ccc(F)cc1
Kdiss (D(2) dopamine receptor [1]): 0.0117 s⁻¹
T1/2 (D(2) dopamine receptor [2]): 69 s
Ka (D(2) dopamine receptor [3]): 2.87 ×10⁸ /M/min

O=C(CCCN1CCC(O)(c2cc(Cl)cc(Cl)c2)CC1)c1ccc(F)cc1
Kdiss (D(2) dopamine receptor [1]): 0.00717 s⁻¹
T1/2 (D(2) dopamine receptor [2]): 116 s
Ka (D(2) dopamine receptor [3]): 6.58 ×10⁸ /M/min

O=C(CCN1CCC(O)(c2ccc(Cl)cc2)CC1)c1ccc(F)cc1
Kdiss (D(2) dopamine receptor [1]): 0.0212 to 0.0325 s⁻¹
T1/2 (D(2) dopamine receptor [2]): 25.8 to 34.2 s
Ka (D(2) dopamine receptor [3]): 1.03 to 1.33 ×10⁷ /M/min

O=C(CCCN1CCC(O)(c2ccc(Cl)cc2)CC1)c1cc(F)cc(F)c1
Kdiss (D(2) dopamine receptor [1]): 0.0153 s⁻¹
T1/2 (D(2) dopamine receptor [2]): 47.4 s
Ka (D(2) dopamine receptor [3]): 4.25 ×10⁶ /M/min

O=C(CCCN1CCC(O)(c2cccc(Cl)c2)CC1)c1ccc(F)cc1
Kdiss (D(2) dopamine receptor [1]): 0.0107 s⁻¹
T1/2 (D(2) dopamine receptor [2]): 71.4 s
Ka (D(2) dopamine receptor [3]): 6.32 ×10⁸ /M/min

OC1(c2ccc(Cl)cc2)CCN(CC/C=C\c2ccc(F)cc2)CC1
Kdiss (D(2) dopamine receptor [1]): 0.0208 s⁻¹
T1/2 (D(2) dopamine receptor [2]): 34.8 s
Ka (D(2) dopamine receptor [3]): 3.35 ×10⁷ /M/min

OC1(c2ccc(Cl)cc2)CCN(CC#Cc2ccc(F)cc2)CC1
Kdiss (D(2) dopamine receptor [1]): 0.016 s⁻¹
T1/2 (D(2) dopamine receptor [2]): 46.2 s
Ka (D(2) dopamine receptor [3]): 3.37 ×10⁶ /M/min

OC1(c2ccc(Cl)cc2)CCN(CCC#Cc2ccc(F)cc2)CC1
Kdiss (D(2) dopamine receptor [1]): 0.0183 s⁻¹
T1/2 (D(2) dopamine receptor [2]): 41.4 s
Ka (D(2) dopamine receptor [3]): 1.61 ×10⁷ /M/min

O=C(CCCN1[C@@H]2CC[C@H]1CC(O)(c1ccc(Cl)cc1)C2)c1ccc(F)cc1 (stereo partly specified)
Kdiss (D(2) dopamine receptor [1]): 0.00317 s⁻¹
T1/2 (D(2) dopamine receptor [2]): 215 s
Ka (D(2) dopamine receptor [3]): 3.68 ×10⁹ /M/min

Cc1ccccc1C(=O)CCCN1CCC(O)(c2ccc(Cl)cc2)CC1
Kdiss (D(2) dopamine receptor [1]): 0.0138 s⁻¹
T1/2 (D(2) dopamine receptor [2]): 60.6 s
Ka (D(2) dopamine receptor [3]): 3.66 ×10⁸ /M/min

OC(CCCN1CCC(O)(c2ccc(Cl)cc2)CC1)c1ccc(F)cc1 (stereo unspecified)
Kdiss (D(2) dopamine receptor [1]): 0.0095 s⁻¹
T1/2 (D(2) dopamine receptor [2]): 75 s
Ka (D(2) dopamine receptor [3]): 6.19 ×10⁶ /M/min

O=C(CCCN1CCC(O)(c2ccc(Cl)c(Cl)c2)CC1)c1ccc(F)cc1
Kdiss (D(2) dopamine receptor [1]): 0.007 s⁻¹
T1/2 (D(2) dopamine receptor [2]): 100 s
Ka (D(2) dopamine receptor [3]): 2.95 ×10⁹ /M/min

O=C(CCCN1CCC(O)(c2ccc(C(F)(F)F)cc2)CC1)c1ccc(F)cc1
Kdiss (D(2) dopamine receptor [1]): 0.0103 s⁻¹
T1/2 (D(2) dopamine receptor [2]): 67.2 s
Ka (D(2) dopamine receptor [3]): 1.36 ×10⁹ /M/min

O=C(CCCN1CCC2(c3ccc(Cl)cc3)CC2C1)c1ccc(F)cc1 (stereo unspecified)
Kdiss (D(2) dopamine receptor [1]): 0.005 s⁻¹
T1/2 (D(2) dopamine receptor [2]): 141 s
Ka (D(2) dopamine receptor [3]): 2.03 ×10⁹ /M/min

O=C(CCCN1CCC(O)(c2cccc(Cl)c2Cl)CC1)c1ccc(F)cc1
Kdiss (D(2) dopamine receptor [1]): 0.005 s⁻¹
T1/2 (D(2) dopamine receptor [2]): 137 s
Ka (D(2) dopamine receptor [3]): 2.2 ×10⁹ /M/min

OC1(c2ccc(Cl)cc2)CCN(CCCSc2ccc(F)cc2)CC1
Kdiss (D(2) dopamine receptor [1]): 0.0165 s⁻¹
T1/2 (D(2) dopamine receptor [2]): 44.4 s
Ka (D(2) dopamine receptor [3]): 4.99 ×10⁸ /M/min

O=C(CCCN1CCC(O)(c2ccc(Cl)cc2)CC1)c1ccccc1
Kdiss (D(2) dopamine receptor [1]): 0.0187 s⁻¹
T1/2 (D(2) dopamine receptor [2]): 40.2 s
Ka (D(2) dopamine receptor [3]): 6.33 ×10⁸ /M/min

OC1(c2ccc(Cl)cc2)CCN(CCCc2ccc(F)cc2)CC1
Kdiss (D(2) dopamine receptor [1]): 0.0222 to 0.0257 s⁻¹
T1/2 (D(2) dopamine receptor [2]): 27.6 to 34.2 s
Ka (D(2) dopamine receptor [3]): 2.29 to 2.45 ×10⁷ /M/min
